Structures can show the parent of a compound that is named as a salt.
Tested on: recombinant guanylate cyclase reporter cell line
Test: Action on recombinant guanylate cyclase reporter cell line (MEC)
Type: cell-based
Details: in some cases mean values obtained from individual determinations
How it was run: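 Cell-based reporter assay with recombinant guanylate cyclase expressed in a reporter cell line, per a published method. Activity reported as minimal effective concentration (MEC), in some cases as the mean of individual determinations.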

Row | SMILES | minimal effective concentration
1 | CCC[C@H](CO)NC(=O)c1c(C)nc2c(OCC3CCCCC3)cccn12 [Example 67, 8-(cyclohexylmethoxy)-N-[(2R)-1-hydroxypentan-2-yl]-2-methylimidazo[1,2-a]pyridine-3-carboxamide] | 0.03 µM
2 | Cc1nc2c(OCC3CCCCC3)cccn2c1C(=O)NC[C@H](O)CO [Example 68, 8-(cyclohexylmethoxy)-N-[(2S)-2,3-dihydroxypropyl]-2-methylimidazo[1,2-a]pyridine-3-carboxamide] | 0.03 µM
3 | CC[C@H](CO)NC(=O)c1c(C)nc2c(OCC3CCCCC3)cccn12 [Example 72, 8-(cyclohexylmethoxy)-N-[(2R)-1-hydroxybutan-2-yl]-2-methylimidazo[1,2-a]pyridine-3-carboxamide] | 0.1 µM
4 | Cc1nc2c(OCC3CCCCC3)cccn2c1C(=O)NCCCCO [Example 74, 8-(cyclohexylmethoxy)-N-(4-hydroxybutyl)-2-methylimidazo[1,2-a]pyridine-3-carboxamide] | 0.2 µM
5 | Cc1nc2c(OCC3CCCCC3)cccn2c1C(=O)N[C@@H](C)CO [Example 75, 8-(cyclohexylmethoxy)-N-[(2S)-1-hydroxypropan-2-yl]-2-methylimidazo[1,2-a]pyridine-3-carboxamide] | 0.22 µM
6 | Cc1nc2c(OCC3CCCCC3)cccn2c1C(=O)NCCO [Example 76, 8-(cyclohexylmethoxy)-N-(2-hydroxyethyl)-2-methylimidazo[1,2-a]pyridine-3-carboxamide formate] | 0.3 µM
7 | Cc1nc2c(OCC3CCCCC3)cccn2c1C(=O)NC(CO)(CO)CO [Example 77, 8-(cyclohexylmethoxy)-N-[1,3-dihydroxy-2-(hydroxymethyl)propan-2yl]-2-methylimidazo[1,2-a]pyridine-3-carboxamide formate] | 0.3 µM
8 | COCC(O)CNC(=O)c1c(C)nc2c(OCC3CCCCC3)cccn12 (stereo not drawn) [Example 79, 8-(cyclohexylmethoxy)-N-(2-hydroxy-3-methoxypropyl)-2-methylimidazo[1,2-a]pyridine-3-carboxamide] | 0.3 µM
9 | Cc1nc2c(OCC3CCCCC3)cccn2c1C(=O)NC[C@@H](O)CO [Example 80, 8-(cyclohexylmethoxy)-N-[(2R)-2,3-dihydroxypropyl]-2-methylimidazo[1,2-a]pyridine-3-carboxamide] | 0.3 µM
10 | Cc1nc2c(OCC3CCCCC3)cccn2c1C(=O)NCCCO [Example 82, 8-(cyclohexylmethoxy)-N-(3-hydroxypropyl)-2-methylimidazo[1,2-a]pyridine-3-carboxamide] | 0.3 µM
11 | Cc1nc2c(OCC3CCCCC3)cccn2c1C(=O)NC1CCCC1O (stereo not drawn) [Example 83, 8-(cyclohexylmethoxy)-N-(2-hydroxycyclopentyl)-2-methylimidazo[1,2-a]pyridine-3-carboxamide] | 0.3 µM
12 | Cc1nc2c(OCC3CCCCC3)cccn2c1C(=O)NC(C)CO (stereo not drawn) [Example 84, 8-(cyclohexylmethoxy)-N-(1-hydroxypropan-2-yl)-2-methylimidazo[1,2-a]pyridine-3-carboxamide] | 0.3 µM
13 | Cc1nc2c(OCC3CCCCC3)cccn2c1C(=O)NC(CO)CO [Example 85, 8-(cyclohexylmethoxy)-N-(1,3-dihydroxypropan-2-yl)-2-methylimidazo[1,2-a]pyridine-3-carboxamide] | 0.38 µM
14 | Cc1nc2c(OCC3CCCCC3)cccn2c1C(=O)NCCOCCO [Example 86, 8-(cyclohexylmethoxy)-N-[2-(2-hydroxyethoxy)ethyl]-2-methylimidazo[1,2-a]-pyridine-3-carboxamide] | 0.65 µM
15 | Cc1nc2c(OCC3CCCCC3)cccn2c1C(=O)NC(C)(C)C(C)O (stereo not drawn) [Example 87, 8-(cyclohexylmethoxy)-N-(3-hydroxy-2-methylbutan-2-yl)-2-methylimidazo[1,2-a]pyridine-3-carboxamide] | 1 µM
16 | CC[C@@H](CO)NC(=O)c1c(C)nc2c(OCC3CCCCC3)cccn12 [Example 88, 8-(cyclohexylmethoxy)-N-[(2S)-1-hydroxybutan-2-yl]-2-methylimidazo[1,2-a]pyridine-3-carboxamide] | 1 µM
17 | CCC[C@@H](CO)NC(=O)c1c(C)nc2c(OCC3CCCCC3)cccn12 [Example 89, 8-(cyclohexylmethoxy)-N-[(2S)-1-hydroxypentan-2-yl]-2-methylimidazo[1,2-a]pyridine-3-carboxamide] | 1 µM
18 | CSCC[C@@H](CO)NC(=O)c1c(C)nc2c(OCC3CCCCC3)cccn12 [Example 90, 8-(cyclohexylmethoxy)-N-[(2S)-1-hydroxy-4-(methylsulphanyl)butan-2-yl]-2-methylimidazo[1,2-a]pyridine-3-carboxamide] | 1 µM

Row | SMILES | minimal effective concentration
19 | CC[C@H](C)[C@@H](CO)NC(=O)c1c(C)nc2c(OCC3CCCCC3)cccn12 [Example 91, 8-(cyclohexylmethoxy)-N-[(2S,3S)-1-hydroxy-3-methylpentan-2-yl]-2-methylimidazo[1,2-a]pyridine-3-carboxamide] | 1 µM
20 | Cc1nc2c(OCC3CCCCC3)cccn2c1C(=O)NC1(CO)CCCC1 [Example 92, 8-(cyclohexylmethoxy)-N-[1-(hydroxymethyl)cyclopentyl]-2-methylimidazo[1,2-a]pyridine-3-carboxamide] | 1 µM
21 | Cc1nc2c(OCC3CCCCC3)cccn2c1C(=O)N[C@H](CO)C(C)C [Example 93, 8-(cyclohexylmethoxy)-N-[(2S)-1-hydroxy-3-methylbutan-2-yl]-2-methylimidazo[1,2-a]pyridine-3-carboxamide] | 1 µM
22 | Cc1nc2c(OCC3CCCCC3)cccn2c1C(=O)NC(CO)COC(C)(C)C (stereo not drawn) [Example 94, N-(1-tert-butoxy-3-hydroxypropan-2-yl)-8-(cyclohexylmethoxy)-2-methylimidazo[1,2-a]-pyridine-3-carboxamide] | 3 µM
23 | Cc1nc2c(OCC3CCCCC3)cccn2c1C(=O)N[C@H](CO)CC(C)C [Example 95, 8-(cyclohexylmethoxy)-N-[(2S)-1-hydroxy-4-methylpentan-2-yl]-2-methylimidazo[1,2-a]pyridine-3-carboxamide] | 3 µM
24 | CCC(C)[C@H](CO)NC(=O)c1c(C)nc2c(OCC3CCCCC3)cccn12 (stereo partly drawn) [Example 96, 8-(cyclohexylmethoxy)-N-[(2R)-1-hydroxy-3-methylpentan-2-yl]-2-methylimidazo[1,2-a]pyridine-3-carboxamide] | 3 µM
25 | Cc1nc2c(OCC3CCC3)cccn2c1C(=O)NCCC1(O)CCCC1 [Example 97, 8-(cyclobutylmethoxy)-N-[2-(1-hydroxycyclopentyl)ethyl]-2-methylimidazo[1,2-a]pyridine-3-carboxamide] | 1 µM
26 | Cc1nc2c(OCC3CCC3)cccn2c1C(=O)NCCOCCO [Example 98, 8-(cyclobutylmethoxy)-N-[2-(2-hydroxyethoxy)ethyl]-2-methylimidazo[1,2-a]pyridine-3-carboxamide] | 3 µM
27 | Cc1nc2c(OCC3CCC3)cccn2c1C(=O)NCCC1(O)CCCCC1 [Example 99, 8-(cyclobutylmethoxy)-N-[2-(1-hydroxycyclohexyl)ethyl]-2-methylimidazo[1,2-a]pyridine-3-carboxamide] | 3 µM
28 | [2H]C([2H])(Oc1cccn2c(C(=O)N[C@@H](CO)CCCC)c(C)nc12)c1c(F)cccc1F [Example 115, 8-{[(2,6-difluorophenyl)(^2H2)methyl]oxy}-N-[(2R)-1-hydroxyhexan-2-yl]-2-methylimidazo[1,2-a]pyridine-3-carboxamide] | 0.01 µM
29 | Cc1nc2c(OCc3c(F)cccc3F)cccn2c1C(=O)NCCC1(O)CCCCC1 [Example 116, 8-[(2,6-difluorobenzyl)oxy]-N-[2-(1-hydroxycyclohexyl)ethyl]-2-methylimidazo[1,2-a]pyridine-3-carboxamide] | 0.3 µM
30 | Cc1nc2c(OCc3c(F)cccc3F)cccn2c1C(=O)NCCC1(O)CCCC1 [Example 117, 8-[(2,6-difluorobenzyl)oxy]-N-[2-(1-hydroxycyclopentyl)ethyl]-2-methylimidazo[1,2-a]pyridine-3-carboxamide] | 0.03 µM
31 | Cc1nc2c(OCc3c(F)cccc3F)cccn2c1C(=O)N[C@H](C)CO [Example 118, 8-[(2,6-difluorobenzyl)oxy]-N-[(2R)-1-hydroxypropan-2-yl]-2-methylimidazo[1,2-a]-pyridine-3-carboxamide] | 0.3 µM
32 | Cc1nc2c(OCc3c(F)cccc3F)cccn2c1C(=O)NC1(CO)CCC1 [Example 125, 8-[(2,6-Difluorobenzyl)oxy]-N-[1-(hydroxymethyl)cyclobutyl]-2-methylimidazo[1,2-a]pyridine-3-carboxamide] | 0.3 µM
33 | C#Cc1cc(OCc2c(F)cccc2F)c2nc(C)c(C(=O)N[C@@H](CO)CCCC)n2c1 [Example 126, 8-[(2,6-Difluorobenzyl)oxy]-6-ethynyl-N-[(2R)-1-hydroxyhexan-2-yl]-2-methylimidazo[1,2-a]-pyridine-3-carboxamide] | 0.1 µM
34 | Cc1nc2c(OCc3c(F)cccc3F)cc(Cl)cn2c1C(=O)N[C@@H](CO)CCCO [Example 127, 6-Chloro-8-[(2,6-difluorobenzyl)oxy]-N-[(2R)-1,5-dihydroxypentan-2-yl]-2-methylimidazo[1,2-a]-pyridine-3-carboxamide] | 0.3 µM
35 | Cc1nc2c(OCc3c(F)cccc3F)cc(Cl)cn2c1C(=O)N[C@@H](CO)CCO [Example 128, 6-chloro-8-[(2,6-difluorobenzyl)oxy]-N-[(2R)-1,4-dihydroxybutan-2-yl]-2-methylimidazo[1,2-a]pyridine-3-carboxamide] | 0.3 µM
36 | Cc1nc2c(OCc3c(F)cccc3F)cccn2c1C(=O)N[C@@H](CO)CCO [Example 129, 8-[(2,6-difluorobenzyl)oxy]-N-[(2R)-1,4-dihydroxybutan-2-yl)-2-methylimidazo[1,2-a]pyridine-3-carboxamide] | 3 µM

From patent publication US8778964B2, “Hydroxy-substituted imidazo[1,2-a]-pyridinecarboxamides and their use” (Bayer Pharma Aktiengesellschaft, priority 2012, dated 2014)
